From patent US11135236B2, “Retinoic acid receptor gamma agonists to attenuate anthracycline-induced cardiotoxicity” (Northwestern University, priority 2018, dated 2021) come the findings set out here.

For data set [1], the system named is RARG-OE hiPSC-CMs. In words: caspase 3 and 7 activity after 24 h doxorubicin (Caspase 3/7-Glo). The class given is cell-based, human.
Experimental: (§1) 384-well plate-based cell viability, caspase 3/7 activity, and reactive oxygen species (ROS) assays. […] Luminescence was measured using a VarioSkan Lux Multi-Mode Reader (Thermo Scientific) with an integration time of 0.25 sec. 10 μM staurosporine (MedChemExpress) was used as a positive control. […] 10 μM staurosporine and 50 μM menadione (both MedChemExpress) was used as a positive control, respectively. Data were analyzed using Prism 7.0 software (GraphPad) using standard dose-response guidelines.
Data set [2] has as its system control hiPSC-CMs. The description is as above. The data set is classed as cell-based, human.
The next data set concerns RARG-KO hiPSC-CMs. Described as above. The data set is classed as cell-based, human.
Data set [3] has as its system hiPSC-CMs. Kind of data set: DNA damage by γH2AX staining. The class given is cell-based, human. The note with it: patient hiPSC-CMs, 24 h doxorubicin. As for the experimental part:
Immunofluorescent staining. hiPSCs were dissociated with 0.5 mM EDTA and plated onto Matrigel-coated Nunc Lab-Tek II 8-chamber slides in E8 medium for three days (E8Y for the first 24 h). Cells were fixed, permeabilized, and stained for POU5F1, SSEA4, SOX2, TRA-1-60 with the PSC 4-Marker Immunocytochemistry Kit (Invitrogen) according to manufacturer's instructions. Cardiomyocytes were dissociated with Liberase TH (as above) and plated onto Matrigel-coated No 1.5 coverslips as previously described and allowed to adhere and spread for 4 days. Cells were fixed with 4% paraformaldehyde (Electron Microscopy Services) in DPBS for 15 min at RT, permeabilized with 1% saponin (MilliporeSigma) in DPBS for 15 min at RT, blocked with 3% bovine serum albumin (BSA, MilliporeSigma) in DPBS for 30 min at RT, and stained overnight in 3% BSA/DPBS at 4° C. with 1:200 polyclonal rabbit IgG anti-TNNT2 (Abcam, ab45932), 1:500 monoclonal mouse IgG1 anti-ACTN2 (Sigma, A7811), 1:200 monoclonal rabbit IgG RARG (Abcam, ab187159), or 1:200 monoclonal mouse IgG1 γH2AX (MilliporeSigma, 05-636). […]
Flow cytometry-based DNA damage assay. […] Cells were analyzed using a CytoFLEX (Beckman Coulter) with CytExpert 2.0 software and Prism 7.0 software (GraphPad).

The subject of data set [4] is RARG-OE hiPSC-CMs. Kind of data set: hiPSC-CM cell viability after 72 h doxorubicin (CellTiter-Glo). The data set is classed as cell-based, human. In general terms: ATP-based viability assays read luminescence as a measure of living cells.
Experimental: as §1
The subject of data set [5] is hiPSC-CMs. Kind of data set: reactive oxygen species assay (ROS-Glo H2O2). The data set is classed as cell-based, human. The note with it: isogenic hiPSC-CMs, 24 h doxorubicin.
Experimental: as §1
For data set [6], the system named is RARG-WT hiPSC-CMs. Kind of data set: caspase 3 and 7 activity after 24 h doxorubicin (Caspase 3/7-Glo). The class given is cell-based, human.
Experimental: as §1
The next data set relates to Hs 578T. Kind of data set: breast cancer cell viability after 72 h of doxorubicin and RARG agonists co-treatment. The note with it: doxorubicin 72 h, Vehicle (no agonist).
Data set [7] has as its system control hiPSC-CMs. In words: hiPSC-CM cell viability after 72 h doxorubicin (CellTiter-Glo). The data set is classed as cell-based, human.
Experimental: as §1
Data set [8] deals with RARG-WT hiPSC-CMs. Described as above. The class given is cell-based, human.
Experimental: as §1

Experimental for Hs 578T: as §1
Breast cancer cell lines. Four human breast cancer cell lines were used, MCF7 (adenocarcinoma, ATCC HTB-22) and Hs 578T (carcinsarcoma, ATCC HTB-126) both cultured in RPMI 1640 (Corning) with 10% FBS (Opti-Gold, GenDEPOT), MDA-MB-231 (adenocarcinoma, ATCC HTB-26) and MDA-MB-468 (adenocarcinoma, ATCC HTB-131) both cultured in DMEM (Corning) with 10% FBS. All cells were cultured on uncoated tissue culture plates (Greiner) and passaged with TrypLE Express (Gibco).
Experimental for RARG-KO hiPSC-CMs: as §1

Take `COc1cccc2c1C(=O)c1c(O)c3c(c(O)c1C2=O)C[C@@](O)(C(=O)CO)C[C@@H]3O[C@H]1C[C@H](N)[C@H](O)[C@H](C)O1` [doxorubicin]: the “LD50, caspase 3 and 7 activity” value in the data set on RARG-OE hiPSC-CMs [1] came to 1.83 µM; with control hiPSC-CMs [2], 2.078 µM; in the data set on RARG-KO hiPSC-CMs, 0.314 µM; in the data set on RARG-WT hiPSC-CMs [6] it was 0.683 µM. For the same compound, the “DNA damage (γH2AX)” value in the data set on hiPSC-CMs [3] is reported as “concentration-dependent increase in DNA damage”. Moreover, the “LD50, cell viability” value with RARG-OE hiPSC-CMs [4] is 2.724 µM; in the data set on RARG-WT hiPSC-CMs [8], 2.061 µM. In addition, the ROS production result with hiPSC-CMs [5] was “concentration-dependent increase in ROS production”. In addition, the LD50 with Hs 578T amounted to 1.829 µM. Also, the “half-maximal lethal dose (LD50), cell viability” value with control hiPSC-CMs [7] came to 2.622 µM.
